The results in this text go back to article PMC6938345, “Inhibition of complement activation, myeloperoxidase, NET formation and oxidant activity by PIC1 peptide variants” (PLoS ONE, 2019).

Structures are written as SMILES. “Also recorded” adds a separate entry of the source.

One assay addresses T1, MPO (Homo sapiens, UniProt P05164).
T1 construct: purchased Lee BioSolutions (Maryland Heights, MO)
T1 sequence (P05164 49-745): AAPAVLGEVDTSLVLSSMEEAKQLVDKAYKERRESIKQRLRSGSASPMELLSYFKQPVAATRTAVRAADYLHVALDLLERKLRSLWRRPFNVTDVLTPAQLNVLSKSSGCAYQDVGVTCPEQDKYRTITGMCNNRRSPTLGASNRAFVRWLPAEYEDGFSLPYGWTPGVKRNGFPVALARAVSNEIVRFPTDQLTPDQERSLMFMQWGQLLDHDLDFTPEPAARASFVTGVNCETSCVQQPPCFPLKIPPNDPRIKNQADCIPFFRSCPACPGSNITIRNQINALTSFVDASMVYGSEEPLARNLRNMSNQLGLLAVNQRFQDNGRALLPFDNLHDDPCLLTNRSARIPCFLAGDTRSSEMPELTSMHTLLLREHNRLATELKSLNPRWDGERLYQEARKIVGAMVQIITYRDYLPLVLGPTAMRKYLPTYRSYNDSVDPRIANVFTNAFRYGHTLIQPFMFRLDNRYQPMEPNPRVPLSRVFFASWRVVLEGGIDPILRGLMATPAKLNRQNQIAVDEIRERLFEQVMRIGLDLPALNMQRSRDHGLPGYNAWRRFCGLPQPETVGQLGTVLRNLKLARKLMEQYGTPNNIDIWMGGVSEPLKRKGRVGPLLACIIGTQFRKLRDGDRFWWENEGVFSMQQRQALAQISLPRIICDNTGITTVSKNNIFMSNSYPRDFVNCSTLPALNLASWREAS
Description: MPO binding ELISA-type assay. As to conditions: solid phased MPO, plate-based. How it is done: (§1) An Immunlon-2 HB ELISA plate was coated with 1 μg/ml C1q or MPO in bicarbonate buffer overnight at 4 °C. The plates were washed with PBST (phosphate buffered saline + 0.1% Tween) and then blocked with 1% gelatin/PBS for 2 hours at room temperature. After washing, the plates were incubated with PA or sarcosine variant peptides starting at 2.5 mg/ml and then serially diluted in 1% gelatin/PBS for 1 hour at room temperature. After washing, the plates were probed with rabbit anti-PA (developed with Cocalico Biologicals, Reamstown, PA) at 1:1000 in 1% gelatin/PBS for 1 hour, room temperature, followed by a goat anti-rabbit HRP (Sigma Aldrich, St Louis, MO) at 1:1,000 in 1% gelatin/PBS for 1 hour at room temperature with a washing step in between. Wells were developed using TMB substrate solution, stopped using 1 N H2SO4, and read at 450 nm in a plate reader.
We then tested the binding of the peptide variants to solid phased MPO in a plate-based assay. The binding curves are shown in Fig 2C with MPO binding identified for all variants except C9,10. Due to the near complete overlay of the I8 and PA curves, the PA curve is not shown in the graph. Half-maximal (Fig 2D) binding concentrations were calculated from these curves.

For a further assay, the target named is T2, C1q (Homo sapiens, UniProt P02745+P02746+P02747).
T2 construct: purchased Complement Technology (Tyler, TX)
T2 sequence (P02745 23-245): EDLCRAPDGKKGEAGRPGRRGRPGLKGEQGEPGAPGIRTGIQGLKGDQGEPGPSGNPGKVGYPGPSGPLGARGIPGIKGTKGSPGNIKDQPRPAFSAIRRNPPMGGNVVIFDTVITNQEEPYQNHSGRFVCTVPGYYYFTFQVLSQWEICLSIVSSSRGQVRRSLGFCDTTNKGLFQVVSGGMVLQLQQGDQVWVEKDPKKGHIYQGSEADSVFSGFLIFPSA
T2 sequence (P02746 28-253): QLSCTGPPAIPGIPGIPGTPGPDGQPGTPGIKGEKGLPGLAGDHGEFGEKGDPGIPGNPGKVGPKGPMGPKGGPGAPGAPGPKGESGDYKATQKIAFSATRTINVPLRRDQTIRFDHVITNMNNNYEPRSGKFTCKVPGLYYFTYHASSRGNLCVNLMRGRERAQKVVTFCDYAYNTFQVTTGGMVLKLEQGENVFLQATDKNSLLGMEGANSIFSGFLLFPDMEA
T2 sequence (P02747 29-245): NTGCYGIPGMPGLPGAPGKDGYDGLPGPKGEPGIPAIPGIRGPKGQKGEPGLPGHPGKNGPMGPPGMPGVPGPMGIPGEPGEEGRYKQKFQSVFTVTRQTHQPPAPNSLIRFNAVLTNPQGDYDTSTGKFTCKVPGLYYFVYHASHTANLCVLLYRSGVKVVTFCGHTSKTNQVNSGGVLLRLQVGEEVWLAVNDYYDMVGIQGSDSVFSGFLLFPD
Description: C1q binding ELISA-type assay. As to conditions: C1q as capture substrate. How it is done:
as §1
We then tested peptide variant binding to C1q in an ELISA-type assay in which the C1q is used as the capture substrate. Binding curves for each peptide is shown in Fig 1C, from which half-maximal binding concentrations were calculated (Fig 1D). […] Higher concentrations of DMSO interfere with the detecting reagents resulting in a partial binding curve.
In general terms: ELISA stands for enzyme-linked immunosorbent assay.

The next assay deals with T3, Myeloperoxidase (MPO) (Homo sapiens, UniProt P05164).
T3 construct: purchased Lee BioSolutions (Maryland Heights, MO)
T3 sequence (P05164 49-745): T1 sequence (P05164 49-745)
Description: MPO activity assay (TMB-based). The assay is classed as biochemical. Conditions: range of concentrations. How it is done:
PIC1 and sarcosine variants were diluted to 25 mg/ml and then serially titrated in a 96 well plate at a volume of 0.02 ml. Myeloperoxidase (MPO) was diluted to 20 μg/ml and 0.02 ml was added to the titrated peptides. TMB (3,3′,5,5′-tetramethylbenzidine) (0.1 ml) was added to each well for 2 minutes, followed by 0.1 ml of 2.5 N H2SO4 for another 2 minutes, and then read on a 96 well plate reader (BioTek) at 450 nm.
In this assay, the variants were tested for MPO inhibition over a range of concentrations (Fig 2A). Strong MPO inhibition was found for all variants with the exception of the no-cysteine variant (C9,10).

For assay [1], the system named is purified human neutrophils. Kind of assay: NETosis assay, free DNA by PicoGreen. The assay is classed as cell-based. Conditions: Average of n = 3; peptide 2 mM. How it is done:
NETosis assays with immune complexes were performed as previously described. Briefly, normal human serum was stimulated with ovalbumin-antiovalbumin immune complexes in GVBS^++ for 30 minutes at 37 °C. This mixture along with 0.05% H2O2 was then added to purified human neutrophils resuspended in RPMI with or without sarcosine variants (2 mM), allowing NETosis to occur. Quantitation of free DNA released from the neutrophils was performed using PicoGreen. Slides were stained with DAPI (Southern Biotech, Birmingham, AL) and the following antibodies, mouse anti-elastase (Invitrogen, Carlsbad, CA) was used with the secondary goat anti-mouse Alexa Fluor 568 (Novus Biologicals, Centennial, CO) and rabbit anti-histone H3 (Abcam, Cambridge MA) with goat anti-rabbit Alexa Fluor 488 (Novus Biologicals) to visualize formation of NETs which were imaged with fluorescence microscopy with an Olympus BX53 microscope.
In this assay purified human neutrophils are stimulated with normal human serum activated with ovalbumin-antiovalbumin immune complexes and hydrogen peroxide. Free DNA expressed from the neutrophils is then measured in a PicoGreen assay.
Fig 5 Sarcosine variant inhibition of NET formation. Fluorescence microscopy images of NET formation after neutrophil stimulation with immune complexes (IC) and hydrogen peroxide (H2O2) compared with neutrophil only control. Variant I8 inhibition of NET formation is shown in the third row. Histones are probed with anti-histone antibody (αhistone), neutrophil elastase is probed with anti-neutrophil elastase (αNE) and DNA is stained with DAPI. Representative images are shown. […] Purified human neutrophils were stimulated with 2% normal human sera pre-incubated with ovalbumin-antiovalbumin immune complexes, and 0.05% H2O2. Sarcosine peptides and PIC1 were added to the sera to a final concentration of 2 mM. Data are the means of n = 3 independent experiments + SEM.

`CC[C@H](C)[C@H](N)C(=O)N[C@@H](C)C(=O)N[C@@H](CC(C)C)C(=O)N[C@H](C(=O)N[C@@H](CC(C)C)C(=O)N[C@@H](CCC(=O)O)C(=O)N1CCC[C@H]1C(=O)N(C)CC(=O)N[C@@H](CS)C(=O)N[C@@H](CS)C(=O)N[C@@H](CCC(N)=O)C(=O)N[C@@H](CCC(=O)O)C(=O)N[C@@H](CCCNC(=N)N)C(=O)N[C@@H](C)C(=O)N[C@@H](C)C(=O)O)[C@@H](C)CC` [I8]: the “binding to MPO (in words)” value at MPO was “superior binding to MPO”. Also, the “binding to C1q (in words)” value on C1q was “superior binding to C1q; also recorded: slightly superior to that of PA-dPEG24”. The “MPO inhibition (in words)” value at Myeloperoxidase (MPO) is “greatest potency”. Moreover, in assay [1], the “PICO green - NETs, free DNA release” value came to 43.
